The values below come from patent US11771669B2, “Topical composition and delivery system and its use” (SBG MEDICAL TECHNOLOGIES, INC., priority 2012, dated 2023).

Series [1] relates to rat cornea. Conditions: topical application onto the rat cornea, cited from earlier work.
Series [2] deals with acute pain. The conditions noted are these: 34 subjects.
Experimental: As indicated, 10 mL of venous blood was collected throughout the study period, at time intervals likely to capture peak and trough levels (Greenblatt D J et al. (1985). Arch Otolaryngol 111: 2988-3000); (Baumann L S, et al. (2010). J Drugs Dermatol 9: 1500-1504). Each subject provided self-rated pain evaluations at those same time intervals, focusing on pain at the identified site of acute pain and of drug application, using the 1-10 Visual Analog Scale (VAS) (Meier T, et al. (2003). Pain 106: 151-158).
The central data used to describe efficacy was the 10-point VAS. While this measure is subjective, the study subjects were requested specifically to be consistent in their pain estimates.
For series [3] the following is noted: animal models, topical; cited from earlier work.

For `O=C(O)CN(CCN(CC(=O)O)CC(=O)O)CC(=O)O` [EDTA, ethylenediaminetetraacetic acid], the “Ocular uptake of C14 EDTA, applied with MSM” value in series [1] (with MSM) was “uptake of the C^14 EDTA in all tested ocular tissues”. In addition, in series [1] (without MSM), the “Ocular penetration of EDTA, without MSM” value is “did not penetrate the eye”.
On to `CCN(CC)CC(=O)Nc1c(C)cccc1C` [lidocaine, 2-(diethylamino)-N-(2,6-dimethylphenyl)acetamide], for which, in series [2] (doses at 0 and 4 h), the “Number of subjects with maximum pain relief at the 1 hour point” value was determined as 9 subjects, the “Subjects whose time elapsed to reach maximal pain reduction was 1 h” value is on record as 27%, the “Subjects whose time elapsed to reach maximal pain reduction was 3 h” value is 21% and the “Subjects whose time elapsed to reach maximal pain reduction was 5 h” value is 18%. Besides, in series [2] (doses at 0 and 4 h), the “Subjects whose time elapsed to reach maximal pain reduction was 7 h” value is on record as 9%, the “Subjects whose time elapsed to reach maximal pain reduction was 9 h” value is recorded as 12% and the “Subjects whose time elapsed to reach maximal pain reduction was 11 h” value was 6%. Besides, in series [2] (maximal pain reduction), the “Number of subjects with pain relief at 50% or better” value is on record as 28 of 34 and the “Subjects with pain reduction of 50% or greater” value was found to be 82%.
Turning to methylsulfonylmethane [MSM], the “Toxicity when administered topically (in words)” value in series [3] is “very low toxicity”.
